Laboratory results taken from patent US5644059A, “1,4-dihydropyridine derivatives and methods of producing the same” (Fujirebio Inc., priority 1990, dated 1997).

System: platelet aggregation
Assay: Test for platelet aggregation-inhibiting activity of rabbit (PAF-induced aggregation in platelet rich plasma)
Assay type: cell-based
Parameters: dose or concentration left out as unconfirmed
Conditions: rabbit PRP, 37°C, 10 minutes incubation, aggregation by PAF (10 μl); test compound concentration not given
Description: 2. Test for platelet aggregation-inhibiting activity of rabit
A blood of a rabbit (Japanese white; male; 2.5-3.0 kg) was exsanguinated from a carotid of the rabbit, and nine parts of the blood were mixed with one part of a 3.8% aqueous solution of sodium citrate. The mixture was centrifuged at 1100 rpm at 20°C. for 15 minutes. The upper layer is a platelet rich plasma (PRP), and the lower layer was centrifuged at 2500 rpm at 20° C. for 10 minutes, so that a platelet poor plasma (PPP) was obtained.
10 μl of a solution of the compound to be tested was added to 200 μl of PRP, and the mixture was subjected to incubation at 37°C. for 10 minutes. To the mixture was added 10 μl of a platelet activating factor (PAF)(10 mg/ml). The agglutination was measured by Agricometer (NKK, PAT-4A).

Compound | Platelet Aggregation-Inhibiting Activity [%]
COC(=O)C1=C(C)NC(C)=C(C(=O)NCC(=O)OC(C)(C)C)C1c1cccc(Cl)c1 (stereo not shown) [Example 32, t-butyl 2-[N-[1,4-dihydro-2,6-dimethyl-5-methoxycarbonyl-4-(3-chlorophenyl)pyridine-3-carbonyl]-amino]acetate] | 100
COC(=O)C1=C(C)NC(C)=C(C(=O)NCC(=O)OC(C)(C)C)C1c1ccccc1C#N (stereo not shown) [Example 33, t-butyl 2-[N-[1,4-dihydro-2,6-dimethyl-5-methoxycarbonyl-4-(2-cyanophenyl)pyridine-3-carbonyl]-amino]acetate] | 94.2
COC(=O)C1=C(C)NC(C)=C(C(=O)NCC(=O)OC(C)(C)C)C1c1cccc(C#N)c1 (stereo not shown) [Example 34, t-butyl 2-[N-[1,4-dihydro-2,6-dimethyl-5-methoxycarbonyl-4-(3-cyanophenyl)pyridine-3-carbonyl]-amino]acetate] | 100
COC(=O)C1=C(C)NC(C)=C(C(=O)NCC(=O)OC(C)(C)C)C1c1cccc(C)c1 (stereo not shown) [Example 35, t-butyl 2-[N-[1,4-dihydro-2,6-dimethyl-5-methoxycarbonyl-4-(3-methylphenyl)pyridine-3-carbonyl]-amino]acetate] | 32.3
CCOC(=O)C1=C(C)NC(C)=C(C(=O)NCC(=O)OC(C)(C)C)C1c1cccc([N+](=O)[O-])c1 (stereo not shown) [Example 36, t-butyl 2-[N-[1,4-dihydro-2,6-dimethyl-5-ethoxycarbonyl-4-(3-nitrophenyl)pyridine-3-carbonyl]-amino]acetate] | 100
CC1=C(C(=O)NCC(=O)OC(C)(C)C)C(c2cccc([N+](=O)[O-])c2)C(C(=O)OC(C)C)=C(C)N1 (stereo not shown) [Example 37, t-butyl 2-[N-[1,4-dihydro-2,6-dimethyl-5-isopropyloxycarbonyl-4-(3-nitrophenyl)pyridine-3-carbonyl]amino]acetate] | 100
COCCOC(=O)C1=C(C)NC(C)=C(C(=O)NCC(=O)OC(C)(C)C)C1c1cccc([N+](=O)[O-])c1 (stereo not shown) [Example 38, t-butyl 2-[N-[1,4-dihydro-2,6-dimethyl-5-(2-methoxyethyloxycarbonyl)-4-(3-nitrophenyl)pyridine-3-carbonyl]amino]acetate] | 100
COC(=O)C1=C(C)NC(C)=C(C(=O)NCC(=O)OC(C)(C)C)C1c1ccccc1C (stereo not shown) [Example 47, t-butyl 2-[N-[1,4-dihydro-2,6-dimethyl-5-methoxycarbonyl-4-(2-methylphenyl)pyridine-3-carbonyl]-amino]acetate] | 32.7
CCOC(=O)C1=C(C)NC(C)=C(C(=O)N[C@H](C(=O)OC(C)(C)C)C(C)C)C1c1cccc([N+](=O)[O-])c1 (stereo partly drawn) [Example 48, t-butyl 2-(S)-[N-[1,4-dihydro-2,6-dimethyl-5-ethoxycarbonyl-4-(3-nitrophenyl)pyridine-3-carbonyl]amino]-3-methylbutylate] | 41.5
CC1=C(C(=O)N[C@H](C(=O)OC(C)(C)C)C(C)C)C(c2cccc([N+](=O)[O-])c2)C(C(=O)OC(C)C)=C(C)N1 (stereo partly shown) [Example 49] | 38.9
COC(=O)C1=C(C)NC(C)=C(C(=O)NCC(=O)N2CCCC2)C1c1cccc([N+](=O)[O-])c1 (stereo not shown) [Example 57, methyl 1,4-dihydro-2,6-dimethyl-4-(3-nitrophenyl)-5-[N-[(pyrrolidin-1-yl)carbonylmethyl]carbamoyl]pyridine-3-carboxylate] | 64.5
COC(=O)C1=C(C)NC(C)=C(C(=O)NCC(=O)N2CCN(c3ccccc3)CC2)C1c1cccc([N+](=O)[O-])c1 (stereo not shown) [Example 58, methyl 1,4-dihydro-2,6-dimethyl-4-(3-nitrophenyl)-5-[N-[(4-phenylpiperazinyl)carbonylmethyl]-carbamoyl]pyridine-3-carboxylate] | 22.1
COCCOC(=O)CNC(=O)C1=C(C)NC(C)=C(C(=O)OC)C1c1cccc([N+](=O)[O-])c1 (stereo not shown) [Example 60] | 47.2
CCOC(=O)CNC(=O)C1=C(C)NC(C)=C(C(=O)OC)C1c1cccc([N+](=O)[O-])c1 (stereo not shown) [Example 62, ethyl 2-[N-[1,4-dihydro-2,6-dimethyl-5-methoxycarbonyl-4-(3-nitropheny1)pyridine-3-carbonyl]amino]-acetate] | 64.3
COC(=O)C1=C(C)NC(C)=C(C(=O)NCC(=O)OC(C)C)C1c1cccc([N+](=O)[O-])c1 (stereo not shown) [Example 63, isopropyl 2-[N-[1,4-dihydro-2,6-dimethyl-5-methoxycarbonyl-4-(3-nitrophenyl)pyridine-3-carbonyl]-amino]acetate] | 100
CCOC(=O)CCNC(=O)C1=C(C)NC(C)=C(C(=O)OC)C1c1cccc([N+](=O)[O-])c1 (stereo not shown) [Example 64, ethyl 3-[N-[1,4-dihydro-2,6-dimethyl-5-methoxycarbonyl-4-(3-nitrophenyl)pyridine-3-carbonyl]amino]-propionate] | 52.6
CCOC(=O)CN(C)C(=O)C1=C(C)NC(C)=C(C(=O)OC)C1c1cccc([N+](=O)[O-])c1 (stereo not shown) [Example 65] | 42.7
COC(=O)C1=C(C)NC(C)=C(C(=O)NCC(=O)N[C@H](C(=O)OC(C)(C)C)C(C)C)C1c1cccc([N+](=O)[O-])c1 (stereo partly drawn) [Example 66, t-butyl 2-(S)-[N-[[N-[1,4-dihydro-2,6-dimethyl-5-methoxycarbonyl-4-(3-nitrophenyl)pyridine-3-carbonyl]amino]acetyl]amino]-3-methylbutylate] | 100
CCOC(=O)C1(NC(=O)C2=C(C)NC(C)=C(C(=O)OC)C2c2cccc([N+](=O)[O-])c2)CCCCC1 (stereo not shown) [Example 67, ethyl 1-[N-[1,4-dihydro-2,6-dimethyl-5-methoxycarbonyl-4-(3-nitrophenyl)pyridine-3-carbonyl]amino]cyclohexanecarboxylate] | 33.8
CCOC(=O)C(C)(C)NC(=O)C1=C(C)NC(C)=C(C(=O)OC)C1c1cccc([N+](=O)[O-])c1 (stereo not shown) [Example 68, ethyl 2-[N-[1,4-dihydro-2,6-dimethyl-5-methoxycarbonyl-4-(3-nitrophenyl)pyridine-3-carbonyl]amino]isobutyrate] | 34.1
CCOC(=O)c1ccccc1NC(=O)C1=C(C)NC(C)=C(C(=O)OC)C1c1cccc([N+](=O)[O-])c1 (stereo not shown) [Example 69, ethyl 2-[N-[1,4-dihydro-2,6-dimethy1-5-methoxycarbonyl-4-(3-nitrophenyl)pyridine-3-carbonyl]amino]-benzoate] | 23.3
CCOC(=O)c1nccnc1NC(=O)C1=C(C)NC(C)=C(C(=O)OC)C1c1cccc([N+](=O)[O-])c1 (stereo not shown) [Example 70, ethyl 3-[N-[1,4-dihydro-2,6-dimethyl-5-methoxycarbonyl-4-(3-nitrophenyl)pyridine-3-carbonyl]amino]pyrazine-2-carboxylate] | 27.1
COC(=O)C1=C(C)NC(c2ccccc2)=C(C(=O)N[C@H](C(=O)OC(C)(C)C)C(C)C)C1c1cccc([N+](=O)[O-])c1 (stereo partly shown) [Example 71, t-butyl 2-[N-[1,4-dihydro-6-methyl-5-methoxycarbonyl-4-(3-nitrophenyl)-2-phenylpyridine-3-carbonyl]amino]-3-methylbutylate] | 100
CCOC(=O)C1=C(c2ccccc2)NC(C)=C(C(=O)NCC(=O)OC(C)(C)C)C1c1cccc([N+](=O)[O-])c1 (stereo not shown) [Example 76] | 46.3
COC(=O)C1=C(C)NC(C)=C(C(=O)NCC(=O)OC(C)(C)C)[C@@H]1c1cccc([N+](=O)[O-])c1 [Example 79, (+)-t-butyl (S)-[2-[N-[1,4-dihydro-2,6-dimethyl-5-methoxycarbonyl-4-(3-nitrophenyl)pyridin-3-yl]-carbonyl]amino]acetate] | 100
